Source: patent US4895842A, “Phenylalanine derivative and proteinase inhibitor” (Shosuke Okamoto, priority 1985, dated 1990)
Structures can show the parent of a compound that is named as a salt.

Experiments:
bovine thrombin [1] = target: T1, bovine thrombin (Bos taurus, UniProt P00735); assay: Antithrombin activity: inhibition of S-2238 decomposition; type: biochemical; settings: Table 2; S-2238 substrate, pH 8.3, 37° C.; read-out: Thrombin S-2238 (I50)
Experimental: (ii) Determination of inhibition activity for S-2238 decomposition
An inhibitor sample is dissolved in a 0.05M Tris-hydrochloric acid buffer solution (pH=8.3) to make a total volume of 400 μl. To this solution, 50 μl of a 0.2 mM S-2238 solution is added and the mixture is incubated at a temperature of 37° C. for 5 minutes in a constant temperature bath. Then, 50 μl of a 0.2 unit/ml bovine thrombin solution is added thereto and the absorbance, at 405 nm, of the p-nitroaniline formed per minute is determined at a temperature of 37° C. by using the so-called initial velocity method. Thus, the concentration I50 (μmol) of the inhibitor sample at which the absorbance is one half (i.e., 1/2) of that obtained in the absence of the inhibitor sample, is determined.

bovine thrombin [2] = target: T1, bovine thrombin; assay: Antithrombin activity: inhibition of fibrin formation from fibrinogen; type: biochemical
Experimental: (i) Determination of inhibition activity against fibrin formation
An inhibitor sample is dissolved in a 0.18M borate-physiological salt buffer solution (pH=7.4) to make the total volume to 500 μl. To this solution, 400 μl of a 0.2% bovine fibrinogen solution and 100 μl of a 4 unit/ml bovine thrombin solution are added at a temperature of 37° C. in a constant temperature bath. Thus, a coagulation time is determined. The inhibitor concentration I50 (μmol), at which the coagulation time obtained in the absence of the inhibitor is extended twice, is determined.

human plasmin [3] = target: T2, human plasmin (Homo sapiens, UniProt P00747); assay: biochemical
T2 sequence (P00747 581-810 limits assumed): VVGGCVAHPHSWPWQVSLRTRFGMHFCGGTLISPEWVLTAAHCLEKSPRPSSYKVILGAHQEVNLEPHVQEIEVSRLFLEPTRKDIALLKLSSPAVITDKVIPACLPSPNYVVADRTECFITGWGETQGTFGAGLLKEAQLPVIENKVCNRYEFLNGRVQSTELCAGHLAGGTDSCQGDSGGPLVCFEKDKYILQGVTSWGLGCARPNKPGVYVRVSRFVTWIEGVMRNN
T2 sequence (P00747 97-580 partner limits assumed): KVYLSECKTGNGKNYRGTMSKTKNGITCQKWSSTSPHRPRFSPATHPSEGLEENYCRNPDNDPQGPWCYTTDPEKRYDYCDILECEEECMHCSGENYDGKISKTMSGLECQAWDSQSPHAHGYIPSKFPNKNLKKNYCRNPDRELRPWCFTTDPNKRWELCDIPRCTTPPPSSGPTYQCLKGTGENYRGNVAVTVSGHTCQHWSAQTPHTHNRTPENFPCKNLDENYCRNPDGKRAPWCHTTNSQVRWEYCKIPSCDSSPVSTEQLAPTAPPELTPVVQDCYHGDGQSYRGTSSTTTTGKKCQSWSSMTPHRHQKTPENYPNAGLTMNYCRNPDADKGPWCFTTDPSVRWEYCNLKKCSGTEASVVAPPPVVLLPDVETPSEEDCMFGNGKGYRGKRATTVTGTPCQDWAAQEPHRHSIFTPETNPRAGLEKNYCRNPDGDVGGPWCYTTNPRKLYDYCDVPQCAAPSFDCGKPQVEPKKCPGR
Experimental: An inhibitor sample is dissolved in a 0.05M Tris-hydrochloric acid buffer solution (pH=7.4) to make the total volume of 400 μl. […] Then, 50 μl of a 0.2 casein unit/ml human plasmin is added and the mixture is incubated at a temperature of 37° C. for 4 minutes. Thereafter, the reaction is stopped by adding 50 μl of 50% acetic acid.
Thus, the concentration I50 (μmol) of the inhibitor sample, at which the absorbance is one half (i.e., 1/2) of that obtained in the absence of the inhibitor, is determined.

human plasmin [4] = target: T2, human plasmin; assay: Antiplasmin activity: inhibition of fibrin decomposition; type: biochemical
Experimental: (i) Determination of inhibition activity for fibrin decomposition
An inhibitor sample is dissolved in a 0.18M borate-physiological salt buffer solution (pH=7.4) to make the total volume to 600 μl. To this buffer solution, 200 μl of a 0.2% bovine fibrinogen, 100 μl of a 0.3 casein unit/ml human plasmin solution, and 100 μl of a 50 unit/ml bovine thrombin solution, all dissolved in the above-mentioned buffer, are added at a temperature of 37° C. in a constant temperature bath. Then, the dissolution time of the fibrin mass formed above is determined.

human plasma kallikrein = human plasma kallikrein (Homo sapiens, UniProt P03952); assay: Anti-plasma kallikrein activity: inhibition of S-2302 decomposition; type: biochemical; settings: Table 2; S-2302 substrate, pH 7.8, 37° C.; read-out: Plasma Kallikrein S-2302 (I50)
Chain of human plasma kallikrein (P03952 391-638 limits assumed): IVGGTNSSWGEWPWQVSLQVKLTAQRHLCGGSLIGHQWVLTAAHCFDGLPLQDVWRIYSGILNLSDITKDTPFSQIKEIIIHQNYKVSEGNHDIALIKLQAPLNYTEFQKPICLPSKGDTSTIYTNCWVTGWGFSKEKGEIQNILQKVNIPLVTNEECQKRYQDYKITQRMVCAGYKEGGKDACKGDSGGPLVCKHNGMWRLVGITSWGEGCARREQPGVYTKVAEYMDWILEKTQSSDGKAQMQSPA
Chain of human plasma kallikrein (P03952 20-390 partner limits assumed): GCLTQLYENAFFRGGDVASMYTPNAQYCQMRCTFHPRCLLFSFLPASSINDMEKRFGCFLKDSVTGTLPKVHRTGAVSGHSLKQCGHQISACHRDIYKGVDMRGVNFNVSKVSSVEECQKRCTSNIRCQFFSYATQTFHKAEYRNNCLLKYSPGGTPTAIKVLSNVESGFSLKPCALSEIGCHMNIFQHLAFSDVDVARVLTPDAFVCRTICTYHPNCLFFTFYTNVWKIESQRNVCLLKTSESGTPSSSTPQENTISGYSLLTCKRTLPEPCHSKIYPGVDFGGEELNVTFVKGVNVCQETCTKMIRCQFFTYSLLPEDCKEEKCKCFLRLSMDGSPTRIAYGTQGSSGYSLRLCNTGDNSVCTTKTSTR
Experimental: Determination of inhibition activity for S-2302 decomposition
An inhibitor sample is dissolved in a 0.05M Tris-hydrochloric acid buffer solution (pH=7.8) to make the total volume to 400 μl. To this solution, 50 μl of a 2 mM S-2302 solution is added and the mixture is incubated at a temperature of 37° C. for 5 minutes in a constant temperature bath. Then, 50 μl of a 0.12 unit/ml human plasma kallikrein is added and the mixture is incubated at a temperature of 37° C. for 5 minutes. Thereafter, 50 μl of 50% acetic acid is added to terminate the reaction. The absorbance of the p-nitroaniline formed in the reaction mixture is measured at 405 nm. Thus, the concentration I50 (μmol) of the inhibitor sample, at which the absorbance is one half (i.e., 1/2) of that obtained in the absence of the inhibitor sample, is determined.

human urokinase = human urokinase (Homo sapiens, UniProt P00749); assay: biochemical; settings: Table 2; S-2444 substrate, pH 8.8, 37° C.; read-out: Urokinase S-2444 (I50)
Experimental: Determination of inhibition activity for S-2444 decomposition
An inhibitor sample is dissolved in a 0.05M Tris-hydrochloric acid buffer solution (pH=8.8) to make the total volume to 400 μl. To this solution, 50 μl of a 1 mM S-2444 solution is added and the mixture is incubated at a temperature of 37° C. for 5 minutes in a constant temperature bath. Then, 50 μl of a 500 unit/ml human urokinase is added and the mixture is incubated at a temperature of 37° C. for 5 minutes. Thereafter, 50 μl of 50% acetic acid is added to terminate the reaction. The absorbance of the p-nitroaniline formed in the reaction mixture is measured at 405 nm. Thus, the concentration I50 (μmol) of the inhibitor sample, at which the absorbance is one half (i.e., 1/2) of that obtained in the absence of the inhibitor sample, is determined.

bovine trypsin = target: T3, bovine trypsin (Bos taurus, UniProt P00760); assay: Antitrypsin activity: inhibition of S-2238 decomposition; type: biochemical; settings: Table 2; S-2238 substrate, pH 8.1, 37° C.; read-out: Trypsin S-2238 (I50)
T3 sequence (P00760 24-246): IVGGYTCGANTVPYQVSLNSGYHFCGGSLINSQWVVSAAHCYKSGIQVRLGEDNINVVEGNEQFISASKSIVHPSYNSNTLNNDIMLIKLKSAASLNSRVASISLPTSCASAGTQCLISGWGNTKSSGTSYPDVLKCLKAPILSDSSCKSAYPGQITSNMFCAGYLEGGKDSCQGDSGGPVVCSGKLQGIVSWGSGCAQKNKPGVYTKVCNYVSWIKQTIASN
Experimental: Determination of inhibition activity against S-2238 decomposition
An inhibitor sample is dissolved in a 0.05M Tris-imidazole buffer solution (pH=8.1) and 125 μl of a 1 mM S-2238 solution is added to make the total volume to 1.20 ml. The mixture is incubated at a temperature of 37° C. for 5 minutes in a constant temperature bath. To this mixture, 0.05 ml of bovine trypsin is added and the absorbance, at 405 nm, of the p-nitroaniline formed per minute is determined at a temperature of 37° C. by using the so-called initial velocity method. Thus, the concentration I50 (μmol) of the inhibitor sample, at which the absorbance is one half (i.e., 1/2) of that obtained in the absence of the inhibitor sample, is determined.

[5] = Table 2, concentration at which fibrin dissolution time is extended twice, pH 7.4, 37° C., read-out: Plasmin Fibrin (I50)

| Structure (SMILES) | IC50 (bovine thrombin [1]) [µM] | IC50 (bovine thrombin [2]) [µM] | IC50 (human plasmin [3]; read-out: Plasmin S-2251 (I50)) [µM] | IC50 (human plasmin [4]; [5]) [µM] | IC50 (human plasma kallikrein) [µM] | IC50 (human urokinase) [µM] | IC50 (bovine trypsin) [µM] | IC50 (human plasmin [3]) [µM] | IC50 (human plasmin [4]) [µM] |
| --- | --- | --- | --- | --- | --- | --- | --- | --- | --- |
| NC[C@H]1CC[C@H](C(=O)N[C@@H](Cc2ccc(OCc3ccccc3)cc2)C(=O)Nc2cccnc2)CC1 [Compound No. 16, N-(trans-4-aminomethylcyclohexylcarbonyl)-4-benzyloxy-L-phenylalanine 3-pyridylamide dihydrochloride] | > 400 | > 500 |  |  |  |  |  |  |  |
| CC(=O)c1ccc(NC(=O)[C@H](Cc2ccc(OCc3c(Cl)cccc3Cl)cc2)NC(=O)[C@H]2CC[C@H](CN)CC2)cc1 [compound 20] | > 50 | > 25 | 1.4 | 0.31 | 0.16 | 120 |  |  |  |
| N=C(N)c1ccc(NC(=O)[C@H](Cc2ccc(OCc3ccccc3)cc2)NC(=O)[C@H]2CC[C@H](CN)CC2)cc1 [compound 126] |  | > 200 | 1.5 | 0.83 | 3.5 | 6.3 | 0.45 |  |  |
| CC(=O)c1ccc(NC(=O)[C@H](Cc2ccc(OCc3ccc(Cl)cc3)cc2)NC(=O)[C@H]2CC[C@H](CN)CC2)cc1 [Compound No. 5, N-(trans-4-aminomethylcyclohexylcarbonyl)-4-(4-chlorobenzyloxy)-L-phenylalanine 4-acetylanilide] |  |  | 0.9 | 0.39 | 0.46 | 25 | 0.84 |  |  |
| NCc1ccc(C(=O)NC(Cc2ccc(OCc3ccccc3)cc2)C(=O)NCc2ccc(F)cc2)cc1 (stereo not drawn) [compound 113] |  | > 50 | 8.3 | 1.7 | > 25 | > 20 | 18 |  |  |
| CC(=O)c1ccc(NC(=O)[C@H](Cc2ccc(OCc3ccc(Br)cc3)cc2)NC(=O)[C@H]2CC[C@H](CN)CC2)cc1 [compound 17] |  |  | 1.5 | 0.28 | 0.56 | 23 |  |  |  |
| Cc1ccc(NC(=O)[C@H](Cc2ccc(OCc3ccccc3)cc2)NC(=O)c2ccc(CN)cc2)cc1C [compound 65] |  | > 50 | 2.9 | 1 | 22 | > 200 | 5 |  |  |
| NC[C@H]1CC[C@H](C(=O)N[C@@H](Cc2ccc(OCc3cccc(Cl)c3)cc2)C(=O)Nc2ccc(C(=O)c3ccccc3)cc2)CC1 [compound 67] |  | > 20 | 1.1 | 0.14 | 1.2 | 40 | 0.44 |  |  |
| CC(=O)c1ccc(NC(=O)[C@H](Cc2ccc(OC(C)C)cc2)NC(=O)[C@H]2CC[C@H](CN)CC2)cc1 [compound 14] | > 400 | > 500 | 168 | 4.4 | 2.1 | 80 |  |  |  |
| NCc1ccc(C(=O)N[C@@H](Cc2ccc(OCc3ccccc3)cc2)C(=O)Nc2ccc(C(=O)O)cc2)cc1 [compound 139] | > 1000 | > 1000 | > 1000 | 190 | > 1000 | > 1000 |  |  |  |
| CC1CCC(NC(=O)C(Cc2ccc(OCc3ccc(F)cc3)cc2)NC(=O)c2ccc(CN)cc2)CC1C (stereo not drawn) [compound 106] |  | > 50 | 1.4 | 0.54 | 19 | > 150 | 3 |  |  |
| CC(=O)c1ccc(NC(=O)[C@H](Cc2ccc(OC(=O)OCc3ccccc3)cc2)NC(=O)[C@H]2CC[C@H](CN)CC2)cc1 [compound 146] | > 100 | > 100 | 0.64 | 0.29 | 0.58 | 45 |  |  |  |
| CC(=O)c1ccc(NC(=O)[C@H](Cc2ccc(OCc3cc(Cl)ccc3Cl)cc2)NC(=O)[C@H]2CC[C@H](CN)CC2)cc1 [compound 125] |  |  | 0.49 | 0.13 | 0.38 | 47 | 0.8 |  |  |
| Cc1ccc(NC(=O)[C@H](Cc2ccc(OCc3ccccc3)cc2)NC(=O)[C@H]2CC[C@H](CN)CC2)cc1 [compound 26] | > 100 | > 100 | 6.9 | 1.1 | 2.1 | 560 |  |  |  |
| CC(=O)c1ccc(NC(=O)[C@H](Cc2ccc(OCc3ccc(Cl)c(Cl)c3)cc2)NC(=O)[C@H]2CC[C@H](CN)CC2)cc1 [compound 45] |  |  | 0.58 | 0.091 | 0.46 | 70 | 0.84 |  |  |
| CC(=O)c1ccc(NC(=O)[C@H](Cc2ccc(OC(=O)OCc3ccccc3Br)cc2)NC(=O)[C@H]2CC[C@H](CN)CC2)cc1 [compound 144] |  | > 50 | 0.23 | 0.051 | 0.37 | 43 | 0.95 |  |  |

Further lines, results first:

| IC50 (bovine thrombin [1]) [µM] | IC50 (bovine thrombin [2]) [µM] | IC50 (human plasmin [3]; read-out: Plasmin S-2251 (I50)) [µM] | IC50 (human plasmin [4]; [5]) [µM] | IC50 (human plasma kallikrein) [µM] | IC50 (human urokinase) [µM] | IC50 (bovine trypsin) [µM] | IC50 (human plasmin [3]) [µM] | IC50 (human plasmin [4]) [µM] | Structure (SMILES) |
| --- | --- | --- | --- | --- | --- | --- | --- | --- | --- |
|  |  | 0.78 | 0.12 | 18 | > 100 | 1.2 |  |  | CC1CCC(NC(=O)C(Cc2ccc(OCc3cccc(Cl)c3)cc2)NC(=O)c2ccc(CN)cc2)CC1C (stereo not drawn) [compound 103] |
| 86 | > 50 | 0.56 | 0.075 | 0.75 | 31 |  |  |  | CC(=O)c1ccc(NC(=O)[C@H](Cc2ccc(OC(=O)OCc3ccccc3Cl)cc2)NC(=O)[C@H]2CC[C@H](CN)CC2)cc1 [compound 145] |
| > 100 | > 100 |  |  | 6 | 3.3 |  | 14 | 3.3 | NC[C@H]1CC[C@H](C(=O)NC(Cc2ccc([N+](=O)[O-])cc2)C(=O)Nc2ccc(C(=O)c3ccccc3)cc2)CC1 (mixture of isomers) [Compound No. 31, N-(trans-4-aminomethylcyclohexylcarbonyl)-4-nitro-D,L-phenylalanine 4-benzoylanilide hydrochloride] |
|  | > 50 | 5.6 | 1.4 | 24 | > 100 | 10 |  |  | Cc1ccc(NC(=O)[C@H](Cc2ccc(OCc3ccccc3)cc2)NC(=O)c2ccc(CN)cc2)cc1 [compound 63] |
|  |  | 3.2 | 1.4 | 40 | > 100 | 9.5 |  |  | NCc1ccc(C(=O)N[C@@H](Cc2ccc(OCc3ccccc3)cc2)C(=O)NC2CCCCC2)cc1 [Compound No. 114, N-(4-aminomethylbenzoyl)-4-benzyloxy-L-phenylalanine cyclohexylamide hydrochloride] |
|  |  | 1.3 | 0.28 | 1.2 | 19 |  |  |  | NC[C@H]1CC[C@H](C(=O)N[C@@H](Cc2ccc(OCc3ccccc3)cc2)C(=O)Nc2ccc(C(=O)c3ccccc3)cc2)CC1 [compound 19] |
|  |  | 0.79 | 0.41 | 0.84 | 11 |  |  |  | CC(=O)c1ccc(NC(=O)[C@H](Cc2ccc(OCc3ccc(F)cc3)cc2)NC(=O)[C@H]2CC[C@H](CN)CC2)cc1 [Compound No. 12] |
